In brackets after ≈: the same amount, converted by molar mass.
Columns and labels:
Assay in all cases: ≥ marks a high value that may be exact or a test limit, other limits are often not marked, values filed in µg/mL are converted to µM
[1] = tested on: Staphylococcus epidermidis ATCC 12228
Bacillus subtilis PS832 = tested on: Bacillus subtilis PS832
[2] = tested on: Klebsiella aerogenes ATCC 13048
Escherichia coli DL7 = tested on: Escherichia coli DL7
Bacillus cereus AS1.126 = tested on: Bacillus cereus AS1.126
[3] = tested on: Enterococcus faecalis CGMCC 1.595
[4] = tested on: Proteus mirabilis CICC 22931
[5] = tested on: Klebsiella aerogenes CGMCC 1.876
[6] = tested on: Staphylococcus aureus AS1.72
[7] = tested on: Pseudomonas aeruginosa CGMCC 1.860
[8] = tested on: Enterobacter cloacae CGMCC 1.58
[9] = tested on: Lactococcus lactis AS1.1690
[10] = tested on: Acinetobacter baumannii CICC 22934
[11] = tested on: Klebsiella pneumoniae subsp. pneumoniae CGMCC 1.176
[12] = tested on: Enterococcus faecium CGMCC 1.2334
Escherichia coli AS1.349 = tested on: Escherichia coli AS1.349
[13] = tested on: Xanthomonas campestris pv. Vesicatoria 2133-2
[14] = tested on: Pseudomonas syringae pv. syringae EPS 94
[15] = tested on: Erwinia amylovora PMV 6076
[16] = tested on: Escherichia coli KCTC 1682
[17] = tested on: Salmonella typhimurium CCARM 8009
[18] = tested on: Pseudomonas aeruginosa KCTC 2004
[19] = tested on: Acinetobacter baumannii CCARM 12036
[20] = tested on: Bacillus subtilis KCTC 3068
[21] = tested on: Escherichia coli CCARM 1238
[22] = tested on: Staphylococcus aureus CCARM 3089
[23] = tested on: Escherichia coli KCTC 2571
[24] = tested on: Staphylococcus aureus CCARM 3090
[25] = tested on: Pseudomonas aeruginosa CCARM 2002
[26] = tested on: Salmonella typhimurium KCTC 1926
[27] = tested on: Pseudomonas aeruginosa CCARM 2003
[28] = tested on: Staphylococcus aureus CCARM 3126
[29] = tested on: Salmonella typhimurium CCARM 8007
[30] = tested on: Staphylococcus aureus KCTC 3881
[31] = tested on: Staphylococcus aureus KCTC 1916
[32] = tested on: Salmonella typhimurium CCARM 8003
[33] = tested on: Staphylococcus epidermidis KCTC 1917
[34] = tested on: Bacillus subtilis KCTC 1022
[35] = tested on: Pseudomonas aeruginosa KCTC 2513
[36] = tested on: Staphylococcus aureus CCARM 3114
[37] = tested on: Acinetobacter baumannii CCARM 12035
[38] = tested on: Acinetobacter baumannii CCARM 12005
[39] = tested on: Pseudomonas aeruginosa KCTC 1637
[40] = tested on: Pseudomonas aeruginosa CCARM 2163
[41] = tested on: Escherichia coli KCTC 2593
[42] = tested on: Staphylococcus aureus KCTC 1621
[43] = tested on: Acinetobacter baumannii CCARM 12037
[44] = tested on: Bacillus subtilis KCTC 1021
[45] = tested on: Escherichia coli CCARM 1229
[46] = tested on: Staphylococcus aureus CCARM 3108
[47] = tested on: Pseudomonas aeruginosa CCARM 2095

Question: What does the source list for `CC[C@H](C)[C@H](NC(=O)[C@H](CCCN=C(N)N)NC(=O)[C@H](CCCCN)NC(=O)[C@H](CC(C)C)NC(=O)[C@H](CC(C)C)NC(=O)CNC(=O)[C@H](Cc1cnc[nH]1)NC(=O)[C@@H](NC(=O)[C@@H](N)C(C)C)[C@@H](C)CC)C(=O)N[C@@H](CCCCN)C(=O)N[C@H](C(=O)N[C@@H](CC(C)C)C(=O)N[C@@H](CC(C)C)C(N)=O)[C@@H](C)O` [VIHGLLKRIKTLL]?
Answer: MIC [1]: 2 µM (≈ 3.01 µg/mL); MIC (Bacillus subtilis PS832): 0.5 µM (≈ 0.751 µg/mL); MIC [2]: ≥ 32 µM; MIC (Escherichia coli DL7): 2 µM (≈ 3.01 µg/mL)

Question: For `CC(C)C[C@H](NC(=O)[C@H](Cc1cnc[nH]1)NC(=O)[C@H](CCCN=C(N)N)NC(=O)CNC(=O)[C@@H](NC(=O)[C@H](C)NC(=O)[C@@H](N)CO)C(C)C)C(=O)N[C@@H](CCCN=C(N)N)C(=O)N[C@@H](CCCN=C(N)N)C(=O)N[C@@H](Cc1ccccc1)C(=O)N[C@@H](CC(C)C)C(=O)N[C@@H](CC(C)C)C(=O)N[C@@H](CCCN=C(N)N)C(=O)N[C@@H](CCCCN)C(=O)N[C@@H](Cc1cnc[nH]1)C(=O)N[C@@H](CCCN=C(N)N)C(=O)N[C@@H](CCCCN)C(=O)N[C@@H](Cc1cnc[nH]1)C(=O)O` [SAVGRHLRRFLLRKHRKH], which MIC (Bacillus cereus AS1.126) is on record?
Answer: 2.34 µM (≈ 5.31 µg/mL)

Question: And the MIC [3]?
Answer: 4.69 µM (≈ 10.6 µg/mL)

Question: And the MIC [4]?
Answer: ≥ 100 µM

Question: What about the MIC [5] of the same molecule?
Answer: ≥ 100 µM

Question: And the MIC [6]?
Answer: 3.13 µM (≈ 7.1 µg/mL)

Question: What about the MIC [7] of the same molecule?
Answer: ≥ 100 µM

Question: What about the MIC [8] of the same molecule?
Answer: ≥ 100 µM

Question: And the MIC [9]?
Answer: 4.69 µM (≈ 10.6 µg/mL)

Question: And the MIC [10]?
Answer: ≥ 100 µM

Question: And the MIC [11]?
Answer: ≥ 100 µM

Question: And the MIC [12]?
Answer: 4.69 µM (≈ 10.6 µg/mL)

Question: What about the MIC (Escherichia coli AS1.349) of the same molecule?
Answer: ≥ 100 µM

Question: `CC[C@H](C)[C@H](NC(=O)[C@H](CCCCN)NC(=O)[C@H](CCCCN)NC(=O)[C@H](Cc1ccccc1)NC(=O)[C@H](CC(C)C)NC(=O)[C@H](CCCCN)NC(=O)[C@@H](N)CCCCN)C(=O)N[C@@H](CC(C)C)C(=O)N[C@@H](CCCCN)C(=O)N[C@@H](Cc1ccc(O)cc1)C(=O)N[C@@H](CC(C)C)C(=O)N[C@@H](CCCCN)C(=O)N[C@@H](Cc1ccccc1)C(=O)N[C@@H](CC(C)C)C(=O)N[C@@H](Cc1cnc[nH]1)C(=O)N[C@@H](CO)C(=O)N[C@@H](C)C(=O)N[C@@H](CCCCN)C(=O)O` [KKLFKKILKYLKFLHSAK] was tested. Which MIC [13] did it give?
Answer: 3.54 µM (≈ 7.9 µg/mL)

Question: And the MIC [14]?
Answer: 3.54 µM (≈ 7.9 µg/mL)

Question: And the MIC [15]?
Answer: 3.54 µM (≈ 7.9 µg/mL)

Question: Which results are given for `CC[C@H](C)[C@H](NC(=O)CNC(=O)[C@H](CCCN=C(N)N)NC(=O)[C@H](CCCCN)NC(=O)[C@@H](NC(=O)[C@H](Cc1cnc[nH]1)NC(=O)[C@H](Cc1cnc[nH]1)NC(=O)[C@H](Cc1ccccc1)NC(=O)[C@@H](N)Cc1ccccc1)[C@@H](C)CC)C(=O)N[C@@H](CCCCN)C(=O)N[C@@H](Cc1cnc[nH]1)C(=O)N[C@H](C(=O)NCC(=O)N[C@@H](CCCCN)C(=O)N[C@H](C(=O)N[C@H](C(=O)N[C@@H](Cc1cnc[nH]1)C(=O)N[C@@H](CCCN=C(N)N)C(=O)N[C@@H](CC(C)C)C(=O)N[C@H](C(=O)N[C@H](C(=O)NCC(=O)O)[C@@H](C)O)C(C)C)[C@@H](C)CC)[C@@H](C)O)C(C)C` [FFHHIKRGIKHVGKTIHRLVTG]?
Answer: MIC [16]: 2 µM (≈ 5.16 µg/mL); MIC [17]: 8 µM (≈ 20.7 µg/mL); MIC [18]: 8 µM (≈ 20.7 µg/mL); MIC [19]: 4 µM (≈ 10.3 µg/mL); MIC [20]: 4 µM (≈ 10.3 µg/mL); MIC [21]: 8 µM (≈ 20.7 µg/mL); MIC [22]: 8 µM (≈ 20.7 µg/mL); MIC [23]: 4 µM (≈ 10.3 µg/mL); MIC [24]: 8 µM (≈ 20.7 µg/mL); MIC [25]: 4 µM (≈ 10.3 µg/mL); MIC [26]: 8 µM (≈ 20.7 µg/mL); MIC [27]: 4 µM (≈ 10.3 µg/mL); MIC [28]: 8 µM (≈ 20.7 µg/mL); MIC [29]: 8 µM (≈ 20.7 µg/mL); MIC [30]: 4 µM (≈ 10.3 µg/mL); MIC [31]: 4 µM (≈ 10.3 µg/mL); MIC [32]: 16 µM (≈ 41.3 µg/mL); MIC [33]: 4 µM (≈ 10.3 µg/mL); MIC [34]: 4 µM (≈ 10.3 µg/mL); MIC [35]: 8 µM (≈ 20.7 µg/mL); MIC [36]: 8 µM (≈ 20.7 µg/mL); MIC [37]: 4 µM (≈ 10.3 µg/mL); MIC [38]: 4 µM (≈ 10.3 µg/mL); MIC [39]: 4 µM (≈ 10.3 µg/mL); MIC [40]: 2 µM (≈ 5.16 µg/mL); MIC [41]: 4 µM (≈ 10.3 µg/mL); MIC [42]: 4 µM (≈ 10.3 µg/mL); MIC [43]: 4 µM (≈ 10.3 µg/mL); MIC [44]: 8 µM (≈ 20.7 µg/mL); MIC [45]: 8 µM (≈ 20.7 µg/mL); MIC [46]: 8 µM (≈ 20.7 µg/mL); MIC [47]: 2 µM (≈ 5.16 µg/mL)
